According to ChEMBL document CHEMBL1201862, “PubChem BioAssay data set” (2004):
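Step 1: Grow cells in 96-well plates. Step 2: Expose to compound for 48 hours at 5 concentrations. Step 3: Interpolate endpoints linearly; if unreached, use highest concentration. Here, GI50 denotes the concentration required for 50% inhibition of growth.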 Calls of active or inactive are those of the source. Cut-off read from the data, not from the text of the source: active = GI50 up to about 1.1 µM and inactive = higher.

Columns and labels:
Test in all cases: growth of human tumour cells (NCI), 48 h
786-0 = tested on: 786-0
A498 = tested on: A498
A549 = tested on: A549
ACHN = tested on: ACHN
CAKI-1 = tested on: CAKI-1
CCRF-CEM = tested on: CCRF-CEM
COLO 205 = tested on: COLO 205
DLD-1 = tested on: DLD-1
DMS-114 = tested on: DMS-114
DMS-273 = tested on: DMS-273
EKVX = tested on: EKVX
HCC 2998 = tested on: HCC 2998
HCT-116 = tested on: HCT-116
HCT-15 = tested on: HCT-15
HL-60 = tested on: HL-60
HOP-18 = tested on: HOP-18
HOP-62 = tested on: HOP-62
HOP-92 = tested on: HOP-92
HT-29 = tested on: HT-29
IGROV-1 = tested on: IGROV-1
K562 = tested on: K562
KM-20L2 = tested on: KM-20L2
KM12 = tested on: KM12
LOX IMVI = tested on: LOX IMVI
LXFL 529 = tested on: LXFL 529
M14 = tested on: M14
MOLT-4 = tested on: MOLT-4
Malme-3M = tested on: Malme-3M
NCI-H226 = tested on: NCI-H226
NCI-H23 = tested on: NCI-H23
NCI-H460 = tested on: NCI-H460
NCI-H522 = tested on: NCI-H522
OVCAR-3 = tested on: OVCAR-3
OVCAR-4 = tested on: OVCAR-4
OVCAR-5 = tested on: OVCAR-5
OVCAR-8 = tested on: OVCAR-8
RPMI-8226 = tested on: RPMI-8226
RXF 631 = tested on: RXF 631
SF-268 = tested on: SF-268
SF-295 = tested on: SF-295
SF-539 = tested on: SF-539
SK-MEL-28 = tested on: SK-MEL-28
SK-MEL-2 = tested on: SK-MEL-2
SK-MEL-5 = tested on: SK-MEL-5
SK-OV-3 = tested on: SK-OV-3
SN12C = tested on: SN12C
SNB-19 = tested on: SNB-19
SNB-75 = tested on: SNB-75
SNB-78 = tested on: SNB-78
SR = tested on: SR
SW-620 = tested on: SW-620
TK-10 = tested on: TK-10
U-251 = tested on: U-251
UACC-257 = tested on: UACC-257
UACC-62 = tested on: UACC-62
UO-31 = tested on: UO-31
XF498 = tested on: XF498

CSc1ccc(-c2cn3ccsc3n2)c(O)c1
GI50 (786-0): 20.7 µM (inactive)
GI50 (A498): > 86.3 µM (inactive)
GI50 (A549): > 90.8 µM (inactive)
GI50 (ACHN): > 82.6 µM (inactive)
GI50 (CAKI-1): > 100 µM (inactive)
GI50 (CCRF-CEM): 16.1 µM (inactive)
GI50 (COLO 205): > 44.5 µM (inactive)
GI50 (DLD-1): 40.4 µM (inactive)
GI50 (DMS-114): 26.1 µM (inactive)
GI50 (DMS-273): 32.8 µM (inactive)
GI50 (EKVX): > 81.3 µM (inactive)
GI50 (HCC 2998): > 60 µM (inactive)
GI50 (HCT-116): 30.3 µM (inactive)
GI50 (HCT-15): 17.6 µM
GI50 (HL-60): 17 µM (inactive)
GI50 (HOP-18): > 76.6 µM (inactive)
GI50 (HOP-62): 49.9 µM (inactive)
GI50 (HOP-92): 47.3 µM (inactive)
GI50 (HT-29): 83.2 µM (inactive)
GI50 (IGROV-1): > 100 µM (inactive)
GI50 (K562): 26.4 µM (inactive)
GI50 (KM-20L2): > 65.2 µM (inactive)
GI50 (KM12): > 56.5 µM (inactive)
GI50 (LOX IMVI): 20 µM (inactive)
GI50 (LXFL 529): > 54.5 µM (inactive)
GI50 (M14): > 59.6 µM (inactive)
GI50 (MOLT-4): 30.5 µM (inactive)
GI50 (Malme-3M): > 61.1 µM (inactive)
GI50 (NCI-H226): > 100 µM (inactive)
GI50 (NCI-H23): 48.3 µM (inactive)
GI50 (NCI-H460): 13.6 µM (inactive)
GI50 (NCI-H522): 37.2 µM (inactive)
GI50 (OVCAR-3): 36.7 µM (inactive)
GI50 (OVCAR-4): > 49.4 µM (inactive)
GI50 (OVCAR-5): > 92.9 µM (inactive)
GI50 (OVCAR-8): > 89.9 µM (inactive)
GI50 (RPMI-8226): 13.8 µM (inactive)
GI50 (RXF 631): > 70.8 µM (inactive)
GI50 (SF-268): 36.7 µM (inactive)
GI50 (SF-295): 39 µM (inactive)
GI50 (SF-539): 32.7 µM (inactive)
GI50 (SK-MEL-28): > 100 µM (inactive)
GI50 (SK-MEL-2): > 85.3 µM (inactive)
GI50 (SK-MEL-5): 41 µM (inactive)
GI50 (SK-OV-3): > 82.4 µM (inactive)
GI50 (SN12C): > 79.1 µM (inactive)
GI50 (SNB-19): > 61.5 µM (inactive)
GI50 (SNB-75): 35.6 µM (inactive)
GI50 (SNB-78): 42.3 µM (inactive)
GI50 (SR): 40.6 µM (inactive)
GI50 (SW-620): 36.1 µM (inactive)
GI50 (TK-10): 61.8 µM (inactive)
GI50 (U-251): 46 µM (inactive)
GI50 (UACC-257): > 24.2 µM (inactive)
GI50 (UACC-62): 69.7 µM (inactive)
GI50 (UO-31): 59.8 µM (inactive)
GI50 (XF498): 30.2 µM (inactive)

CN(C)CCN1N=Nc2cccc3cccc1c23
GI50 (786-0): > 100 µM (inactive)
GI50 (A498): > 91.8 µM (inactive)
GI50 (A549): > 100 µM (inactive)
GI50 (ACHN): 61.1 µM (inactive)
GI50 (CAKI-1): 69.7 µM (inactive)
GI50 (CCRF-CEM): > 47 µM (inactive)
GI50 (COLO 205): 68.4 µM (inactive)
GI50 (DLD-1): > 80.7 µM (inactive)
GI50 (DMS-114): > 74.8 µM (inactive)
GI50 (DMS-273): 24.5 µM (inactive)
GI50 (EKVX): > 100 µM (inactive)
GI50 (HCC 2998): > 100 µM (inactive)
GI50 (HCT-116): 57.1 µM (inactive)
GI50 (HCT-15): > 61.9 µM
GI50 (HL-60): > 46.8 µM (inactive)
GI50 (HOP-18): > 100 µM (inactive)
GI50 (HOP-62): > 100 µM (inactive)
GI50 (HOP-92): > 100 µM (inactive)
GI50 (HT-29): 45.6 µM (inactive)
GI50 (IGROV-1): > 100 µM (inactive)
GI50 (K562): > 65.2 µM (inactive)
GI50 (KM-20L2): > 61.4 µM (inactive)
GI50 (KM12): > 100 µM (inactive)
GI50 (LOX IMVI): 83.8 µM (inactive)
GI50 (LXFL 529): > 87.3 µM (inactive)
GI50 (M14): > 100 µM (inactive)
GI50 (MOLT-4): 35.2 µM (inactive)
GI50 (Malme-3M): > 78.3 µM (inactive)
GI50 (NCI-H226): > 100 µM (inactive)
GI50 (NCI-H23): > 100 µM (inactive)
GI50 (NCI-H460): 37.5 µM (inactive)
GI50 (NCI-H522): 54.2 µM (inactive)
GI50 (OVCAR-3): > 100 µM (inactive)
GI50 (OVCAR-4): 72.9 µM (inactive)
GI50 (OVCAR-5): > 100 µM (inactive)
GI50 (OVCAR-8): 97.9 µM (inactive)
GI50 (RPMI-8226): > 43.9 µM (inactive)
GI50 (RXF 631): > 100 µM (inactive)
GI50 (SF-268): > 100 µM (inactive)
GI50 (SF-295): > 100 µM (inactive)
GI50 (SF-539): > 100 µM (inactive)
GI50 (SK-MEL-28): > 100 µM (inactive)
GI50 (SK-MEL-2): > 100 µM (inactive)
GI50 (SK-MEL-5): > 88.7 µM (inactive)
GI50 (SK-OV-3): > 100 µM (inactive)
GI50 (SN12C): > 55.5 µM (inactive)
GI50 (SNB-19): > 100 µM (inactive)
GI50 (SNB-75): > 100 µM (inactive)
GI50 (SR): 15.7 µM (inactive)
GI50 (SW-620): 25.1 µM (inactive)
GI50 (TK-10): > 100 µM (inactive)
GI50 (U-251): > 100 µM (inactive)
GI50 (UACC-257): > 100 µM (inactive)
GI50 (UACC-62): > 100 µM (inactive)
GI50 (UO-31): > 100 µM (inactive)
GI50 (XF498): > 89.5 µM (inactive)
